How the values were obtained:
[1] = target: T1, GDP-loaded KRAS (1-169) G12C, C51S, C80L, C118S (Homo sapiens, UniProt P01116, C118S/C51S/C80L/G12C); assay: Mass Spectrometry Reactivity Assay (MSRA): covalent adduct of compound and KRAS G12C, Percent Modification; assay type: binding; details: for MSRA (% modification) 10 μM 0.50 hr / MSRA (% modification) 10 μM 0.25 hr: 10 μM compound; for MSRA (% modification) 5.0 μM 0.017 hr / MSRA (% modification) 5.0 μM 0.25 hr: 5.0 μM compound
T1 construct: GDP-loaded KRAS (1-169) G12C, C51S, C80L, C118S
Procedure, shortened: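 GDP-loaded KRAS(1-169) G12C/C51S/C80L/C118S at 5 μM in 25 mM Hepes pH 7.5, 200 mM NaCl, 5% glycerol incubated at RT with compound (typically 5 or 10 μM final, 1% DMSO). Quenched in formic acid at 1-60 min; intact-protein LC-TOF MS gives % modification = modified/(modified+unmodified).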

KRAS G12C = KRAS G12C (Homo sapiens, UniProt P01116, G12C); assay: Cell Activity Assay: accumulation of GDP-bound KRAS G12C in MIAPaCa-2 cells (Raf-1 RBD capture, MSD readout); assay type: cell-based; set-up: endogenous in cells; host or cells: MIAPaCa-2; details: 6 hours, assay limit is 30.00
Procedure, shortened: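 MIAPaCa-2 cells exposed 6 h at 37 °C to 3-fold compound dilutions (0.3% DMSO final), then lysed. Active GTP-KRAS captured on Raf-1 RBD-coated plates, detected with anti-pan-Ras and SULFO-TAG secondary by MSD electrochemiluminescence. Signal normalized to DMSO and maximum inhibition; IC50 from 4-parameter fit.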

Compound | MSRA (% modification) 10 μM 0.50 hr [1] | IC50 (KRAS G12C) | MSRA (% modification) 10 μM 0.25 hr [1] | MSRA (% modification) 5.0 μM 0.017 hr [1] | MSRA (% modification) 5.0 μM 0.25 hr [1]
C=CC(=O)N1CCN(c2nc(OC)nc3c(Oc4c(C)ccc5[nH]ncc45)nccc23)CC1 [Example 01B, 1-(4-{2-methoxy-8-[(5-methyl-1H-indazol-4-yl)oxy]pyrido[3,4-d]pyrimidin-4-yl}piperazin-1-yl)prop-2-en-1-one] | 12% | 16.9 µM |  |  | 
C=CC(=O)N1CCN(c2nc(OCCN3CCCC3)nc3c(Oc4c(C)ccc5[nH]ncc45)nccc23)CC1 [Example 12B, 1-(4-{8-[(5-methyl-1H-indazol-4-yl)oxy]-2-[2-(pyrrolidin-1-yl)ethoxy]pyrido[3,4-d]pyrimidin-4-yl}piperazin-1-yl)prop-2-en-1-one] |  | 5.45 µM | 21% |  | 
C=CC(=O)N1CCN(c2nc(N(C)CCC(=O)NC)nc3c(Oc4c(C)ccc5[nH]ncc45)cccc23)CC1 [Example 14F, N^3-{4-(4-acryloylpiperazin-1-yl)-8-[(5-methyl-1H-indazol-4-yl)oxy]quinazolin-2-yl}-N,N^3-dimethyl-β-alaninamide] | 12% | 29 µM |  |  | 
C=CC(=O)N1CCN(c2nc(O[C@@H]3CN(C(C)C)C[C@H]3OC)nc3c(Oc4c(Cl)c(F)cc5[nH]ncc45)nccc23)CC1 [Example 20I, 1-[4-(8-[(5-chloro-6-fluoro-1H-indazol-4-yl)oxy]-2-{[(3R,4R)-4-methoxy-1-(propan-2-yl)pyrrolidin-3-yl]oxy}pyrido [3,4-d]pyrimidin-4-yl)piperazin-1-yl]prop-2-en-1-one] |  | 0.016 µM |  | 73% | 
C=CC(=O)N1CCN(c2nc(OC[C@H]3COCCN3C)nc3c(Oc4c(Cl)c(F)cc5[nH]ncc45)nc(Cl)cc23)CC1 [Example 08G, 1-[4-(6-chloro-8-[(5-chloro-6-fluoro-1H-indazol-4-yl)oxy]-2-{[(3R)-4-methylmorpholin-3-yl]methoxy}pyrido[3,4-d]pyrimidin-4-yl)piperazin-1-yl]prop-2-en-1-one] |  | 0.148 µM | 80% |  | 
C=CC(=O)N1CCN(c2nc(Oc3cccc4c3CCN(CC)C4)nc3c(Oc4c(Cl)c(F)cc5[nH]ncc45)nccc23)CC1 [Example 17I, 1-(4-{8-[(5-chloro-6-fluoro-1H-indazol-4-yl)oxy]-2-[(2-ethyl-1,2,3,4-tetrahydro-isoquinolin-5-yl)oxy]pyrido [3,4-d]pyrimidin-4-yl}piperazin-1-yl)prop-2-en-1-one] |  | 0.005 µM |  | 82% | 
C=CC(=O)N1CCN(c2nc(OC[C@H]3CCCN3C)nc3c(Oc4c(Cl)c(F)cc5[nH]ncc45)cccc23)CC1 [Example 20E, 1-[4-(8-[(5-chloro-6-fluoro-1H-indazol-4-yl)oxy]-2-{[(2R)-1-methylpyrrolidin-2-yl]methoxy}quinazolin-4-yl)piperazin-1-yl]prop-2-en-1-one] |  | 1.02 µM | 8% |  | 
C=CC(=O)N1CCN(c2nc(OC[C@@H]3C[C@@H](OC)CN3C)nc3c(Oc4c(Cl)c(F)cc5[nH]ncc45)nccc23)CC1 [Example 13H, 1-[4-(8-[(5-chloro-6-fluoro-1H-indazol-4-yl)oxy]-2-{[(2S,4R)-4-methoxy-1-methylpyrrolidin-2-yl]methoxy}pyrido[3,4-d]pyrimidin-4-yl)piperazin-1-yl]prop-2-en-1-one] |  | 0.311 µM | 83% |  | 65%
C=CC(=O)N1CCN(c2nc(NCC3CC(=O)N(C)C3)nc3c(Oc4c(C)ccc5[nH]ncc45)cccc23)CC1 (stereo not drawn) [Example 04F, 4-[({4-(4-acryloylpiperazin-1-yl)-8-[(5-methyl-1H-indazol-4-yl)oxy]quinazolin-2-yl}amino)methyl]-1-methylpyrrolidin-2-one] | 43% | 7.28 µM |  |  | 
C=CC(=O)N1CCN(c2nc(N3CC(N(C)C)C3)nc3c(Oc4c(C)ccc5[nH]ncc45)nc(C)cc23)[C@@H](C)C1 [Example 05B, 1-[(3S)-4-{2-[3-(dimethylamino)azetidin-1-yl]-6-methyl-8-[(5-methyl-1H-indazol-4-yl)oxy]pyrido[3,4-d]pyrimidin-4-yl}-3-methylpiperazin-1-yl]prop-2-en-1-one] | 15% | 4.03 µM |  |  | 
C=CC(=O)N1CCN(c2nc(OC[C@H]3CCOC3)nc3c(Oc4c(Cl)c(F)cc5[nH]ncc45)nccc23)CC1 [Example 04H, 1-(4-{8-[(5-chloro-6-fluoro-1H-indazol-4-yl)oxy]-2-[(3S)-tetrahydrofuran-3-ylmethoxy]pyrido[3,4-d]pyrimidin-4-yl}piperazin-1-yl)prop-2-en-1-one] |  | 0.465 µM | 73% |  | 65%
C=CC(=O)N1CCN(c2ncnc3c(Oc4c(Cl)c(C)cc5[nH]ncc45)cccc23)CC1 [Example 06C, 1-(4-{8-[(5-chloro-6-methyl-1H-indazol-4-yl)oxy]quinazolin-4-yl}piperazin-1-yl)prop-2-en-1-one] | 53% | 1.62 µM |  |  | 
C=CC(=O)N1CCN(c2nc(Oc3cccnc3C3CC3)nc3c(Oc4c(Cl)c(F)cc5[nH]ncc45)nccc23)CC1 [Example 06I, 1-(4-{8-[(5-chloro-6-fluoro-1H-indazol-4-yl)oxy]-2-[(2-cyclo-propyl-pyridin-3-yl)oxy]pyrido [3,4-d]pyrimidin-4-yl}piperazin-1-yl)prop-2-en-1-one] |  | 0.02 µM |  |  | 74%
C=CC(=O)N1CCN(c2ncnc3c(Oc4c(C)ccc5[nH]ncc45)cccc23)C[C@H]1C [Example 03C, 1-[(2R)-2-methyl-4-{8-[(5-methyl-1H-indazol-4-yl)oxy]quinazolin-4-yl}piperazin-1-yl]prop-2-en-1-one] | 8% | 24.2 µM | 3% |  | 

The next lines start with the values.

MSRA (% modification) 10 μM 0.50 hr [1] | IC50 (KRAS G12C) | MSRA (% modification) 10 μM 0.25 hr [1] | MSRA (% modification) 5.0 μM 0.017 hr [1] | MSRA (% modification) 5.0 μM 0.25 hr [1] | Compound
 | 0.02 µM |  | 68% |  | C=CC(=O)N1CCN(c2nc(O[C@@H]3CN(C)C[C@H]3OC)nc3c(Oc4c(C)c(Cl)cc5[nH]ncc45)nccc23)CC1 [Example 40I, 1-[4-(8-[(6-chloro-5-methyl-1H-indazol-4-yl)oxy]-2-{[(3R,4R)-4-methoxy-1-methyl-pyrrolidin-3-yl]oxy}pyrido [3,4-d]pyrimidin-4-yl)piperazin-1-yl]prop-2-en-1-one]
10% | 15.6 µM |  |  |  | C=CC(=O)N1CCN(c2ncnc3c(Oc4c(Cl)c(C)cc5[nH]ncc45)nccc23)C[C@@H]1C [Example 22A, 1-[(2S)-4-{8-[(5-chloro-6-methyl-1H-indazol-4-yl)oxy]pyrido[3,4-d]pyrimdin-4-yl}-2-methylpiperazin-1-yl]prop-2-en-1-one]
 | 0.04 µM |  | 81% |  | [2H]C([2H])([2H])N1C[C@@H](OC)[C@H](Oc2nc(N3CCN(C(=O)C=C)CC3)c3ccnc(Oc4c(Cl)c(F)cc5[nH]ncc45)c3n2)C1 [Example 56I, 1-[4-(8-[(5-chloro-6-fluoro-1H-indazol-4-yl)oxy]-2-{[(3R,4R)-4-methoxy-1-(^2H3)methyl-pyrrolidin-3-yl]oxy}pyrido [3,4-d]pyrimidin-4-yl)piperazin-1-yl]prop-2-en-1-one]
 | 0.006 µM |  | 67% |  | C=CC(=O)N1CCN(c2nc(Oc3cccc4c3CCN(C)C4)nc3c(Oc4c(Cl)ccc5[nH]ncc45)nccc23)CC1 [Example 48I, 1-(4-{8-[(5-chloro-1H-indazol-4-yl)oxy]-2-[(2-methyl-1,2,3,4-tetrahydro-isoquinolin-5-yl)oxy]pyrido [3,4-d]pyrimidin-4-yl}piperazin-1-yl)prop-2-en-1-one]
 | 0.094 µM |  | 42% |  | C=CC(=O)N1CCN(c2nc(O[C@@H]3CN(C)C[C@H]3CC)nc3c(Oc4c(Cl)c(F)cc5[nH]ncc45)nccc23)CC1 (racemic) [Example 21I, rac-1-[4-(8-[(5-chloro-6-fluoro-1H-indazol-4-yl)oxy]-2-{[(3S,4R)-4-ethyl-1-methyl-pyrrolidin-3-yl]oxy}pyrido [3,4-d]pyrimidin-4-yl)piperazin-1-yl]prop-2-en-1-one]
 | 0.008 µM |  | 83% |  | C#CCN1C[C@@H](OC)[C@H](Oc2nc(N3CCN(C(=O)C=C)CC3)c3cc(Cl)nc(Oc4c(Cl)c(F)cc5[nH]ncc45)c3n2)C1 [Example 40G, 1-[4-(6-chloro-8-[(5-chloro-6-fluoro-1H-indazol-4-yl)oxy]-2-{[(3R,4R)-4-methoxy-1-(prop-2-yn-1-yl)pyrrolidin-3-yl]oxy}pyrido[3,4-d]pyrimidin-4-yl)piperazin-1-yl]prop-2-en-1-one]
 | 1.29 µM | 47% |  | 19% | C=CC(=O)N1CCN(c2ncnc3c(Oc4c(F)c(Cl)cc5[nH]ncc45)nc(Cl)cc23)CC1 [Example 34A, 1-(4-{6-chloro-8-[(6-chloro-5-fluoro-1H-indazol-4-yl)oxy]pyrido[3,4-d]pyrimidin-4-yl}piperazin-1-yl)prop-2-en-1-one]
 | 0.023 µM |  | 81% |  | C=CC(=O)N1CCN(c2nc(O[C@@H]3CN(C(C)(C)C)C[C@H]3OC)nc3c(Oc4c(Cl)c(F)cc5[nH]ncc45)nccc23)CC1 [Example 52I, 1-[4-(2-{[(3R,4R)-1-tert-butyl-4-methoxy-pyrrolidin-3-yl]oxy}-8-[(5-chloro-6-fluoro-1H-indazol-4-yl)oxy]pyrido [3,4-d]pyrimidin-4-yl)piperazin-1-yl]prop-2-en-1-one]

From patent US10662204B2 (PFIZER INC., priority 2018, dated 2020)
